In patent US20240024403A1, “Compositions and Methods for Managing Weight” (Unigen, Inc., priority 2012, published 2024):
“And” between values parts separate entries of the source, which are not always exact repeats. Identical values can stand only once. “Also recorded” adds a separate entry of the source.

Assays:
[1] = High fat diet induced obesity (DIO) rat model; type: in vivo, Spraue-Dawley rats; parameters: NASH (sum) / NSAH (sum): scale not given here; Epididymal fatty tissue weight / Retroperitoneal fatty tissue weight / Total Fat / Epididymal Fat, absolute weight / Retroperitoneal Fat, absolute weight: unit not given here
Method: Male Spraue-Dawley rats, age 4-6 weeks (OrientBio, Inc.; Seongnam, Korea) were housed individually in Polycarbonate cages in a room with a 12 hr:12 hr light-dark cycle and an ambient temperature of 24° C. All the rats were fed a commercial chow diet for 1 week after arrival in the animal facility. Rats were then divided into normal and obesity groups and fed with normal diet (ND) and high fat diets (HFD) respectively. The HFD group was divided into multiple treatment groups: a high fat diet vehicle group (HFD), an orlistat (purchased as OTC drug Alli®) positive control treatment group (ORI, 80 mg/kg of animal weight, 2 times/day). In some examples, sibutramine was used as a positive control (SIB, 3 mg/kg for rat studies and […] for mice studies).
Body weight was measured once or twice per week and feed intake was measured twice per week. Body weight gain was determined for each study group by measurement of the body weight difference for each study group between each successive week of the study. At the end of the experimental period, following a 12-h fasting period, the animals were anesthetized with ether, and blood was drawn from the abdominal vein. Liver and kidney and adipose tissues (epididymal, retroperitoneal, perirenal adipose tissues) were removed from each animal, rinsed with physiological saline, and weighted. Serum concentrations of glucose, total cholesterol and LDL-cholesterol were determined using automatic analyzer (INTEGRA 400, Roche, Germany). Statistical significance of test results was performed by Student's t-test.

ghrelin = test: Plasma active ghrelin level in DIO mice (ELISA); type: in vivo
Method: Obese mice were treated with various three component compositions to test the anti-obesity and appetite effects of such compositions. Three component Composition 1 (Magnolia:Morus:Yerba Mate) produced according to the Example 38, three component Composition 2 (Magnolia:Morus:Mutamba) produced according to the Example 42, three component Composition 3 (Morus: Rosemary:Yerba Mate) produced according to the Example 39, and three component Composition 9 (Morus:Rosemary:Areca) produced according to the Example 41, were each separately administrated orally to DIO mice as described in the Example 48. The high fat diet (HFD) mice were divided into multiple treatment groups with a total of 10 animals per group. The mice were treated with one of the following: Composition 1 (1300 mg/kg/day), Composition 2 (1300 mg/kg/day), Composition 3 (1700 mg/kg/day), or Composition 9 (1700 mg/kg/day). Control groups included a normal diet group given vehicle only (ND, negative control), a high fat diet group given vehicle only (HFD, negative control), an orlistat group (ORI, 40 mg/kg, 2 times/day, positive control), and a sibutramine group (10 mg/kg, 1 time/day, positive control). Body weight and feed intake were measured daily for 2 weeks after treatment and then twice a week until the end of the 7 week study. At week 2 and week 7 after treatment, mice were fasted for 16 hours and then five animals were examined to measure plasma concentrations of leptin and ghrelin. Leptin and ghrelin levels were measured by using commercial ELISA kits specific for leptin or ghrelin (Millipore Co., Billerica, MA) according to the manufacturer's instructions. Measurements were taken using a microplate reader (Victor™ X3, PerkinElmer Inc., USA) and analyzed with PerkinElmer 2030 workstation computer software.

[2] = DIO rats, ORI 80 mg/kg, 55 day study, mean
[3] = DIO rats, blood at end of study, ORI 80 mg/kg, mean
[4] = DIO rats, liver pathology, ORI 80 mg/kg, mean
[5] = DIO rats, liver pathology score, ORI group, mean

## CCCCCCCCCCC[C@@H](C[C@@H]1OC(=O)[C@H]1CCCCCC)OC(=O)[C@H](CC(C)C)NC=O [ORI, orlistat]
[1]; [2]
  Body Weight Gain: 1.22 g/day
  Food Intake: 25.71 g/day
[1]; DIO rats, ORI 80 mg/kg, 55 day study, body weight gain/food intake
  Food Efficiency Ratio (FER): 0.05
[1]; DIO rats, ORI 80 mg/kg, day 3, mean
  Weight Gain: 2.80
[1]; DIO rats, ORI 80 mg/kg, day 7, mean
  Weight Gain: 1.04
[1]; DIO rats, ORI 80 mg/kg, day 10, mean
  Weight Gain: 0.82
[1]; DIO rats, ORI 80 mg/kg, day 14, mean
  Weight Gain: 3.40
[1]; DIO rats, ORI 80 mg/kg, day 17, mean
  Weight Gain: 3.34
[1]; DIO rats, ORI 80 mg/kg, day 21, mean
  Weight Gain: 15.89
[1]; DIO rats, ORI 80 mg/kg, day 24, mean
  Weight Gain: 19.89
[1]; DIO rats, ORI 80 mg/kg, day 28, mean
  Weight Gain: 28.19
[1]; DIO rats, ORI 80 mg/kg, day 31, mean
  Weight Gain: 33.33
[1]; DIO rats, ORI 80 mg/kg, day 35, mean
  Weight Gain: 38.43
[1]; DIO rats, ORI 80 mg/kg, day 37, mean
  Weight Gain: 43.95
[1]; DIO rats, ORI 80 mg/kg, day 42, mean
  Weight Gain: 49.06
[1]; DIO rats, ORI 80 mg/kg, day 45, mean
  Weight Gain: 59.88
[1]; DIO rats, ORI 80 mg/kg, day 49, mean
  Weight Gain: 63.68
[1]; DIO rats, ORI 80 mg/kg, day 52, mean
  Weight Gain: 71.12
[1]; DIO rats, ORI 80 mg/kg, day 55, mean
  Weight Gain: 68.11
[1]; DIO rats, ORI 80 mg/kg, mean
  Epididymal fatty tissue weight: 17.87
  Perirenal fatty tissue weight: 6.11
  Retroperitoneal fatty tissue weight: 19.21
[1]; DIO rats, ORI 80 mg/kg, sum of epididymal, retroperitoneal and perirenal fat
  Total Fat: 43.19
[1]; [3]
  ALP: 480.16 U/L
  ALT: 35.65 U/L
  AST: 146.39 U/L
  LDL-C: 10.63 mg/dL
  T-chol: 110.13 mg/dL
  TG: 216.38 mg/dL
[1]; [4]
  Hepatocellular ballooning (0-2): 0.675 and 0.625
  Lobular Inflammation (0-3): 1.500
  NASH (sum): 2.875
  Steatosis (0-3): 0.750
[1]; DIO rats, ORI group, mean
  Epididymal Fat, absolute weight: 17.87
  FER (Food efficiency ratio): 0.05
  Food Intake: 25.71 g/day
  LDL-C: 10.63 mg/dL
  Perirenal Fat, absolute weight: 6.11
  Retroperitoneal Fat, absolute weight: 19.21
  T-chol: 110.13 mg/dL
  TG: 216.38 mg/dL
  Total Fat: 43.19
  Weight Gain: 1.22 g/day
[1]; DIO rats, day 3, ORI group, mean
  Weight Gain: 2.80
[1]; DIO rats, day 7, ORI group, mean
  Weight Gain: 1.04
[1]; DIO rats, day 10, ORI group, mean
  Weight Gain: 0.82
[1]; DIO rats, day 14, ORI group, mean
  Weight Gain: 3.40
[1]; DIO rats, day 17, ORI group, mean
  Weight Gain: 3.34
[1]; DIO rats, day 21, ORI group, mean
  Weight Gain: 15.89
[1]; DIO rats, day 24, ORI group, mean
  Weight Gain: 19.89
[1]; DIO rats, day 28, ORI group, mean
  Weight Gain: 28.19
[1]; DIO rats, day 31, ORI group, mean
  Weight Gain: 33.33
[1]; DIO rats, day 35, ORI group, mean
  Weight Gain: 38.43
[1]; DIO rats, day 37, ORI group, mean
  Weight Gain: 43.95
[1]; DIO rats, day 42, ORI group, mean
  Weight Gain: 49.06
[1]; DIO rats, day 45, ORI group, mean
  Weight Gain: 59.88
[1]; DIO rats, day 49, ORI group, mean
  Weight Gain: 63.68
[1]; DIO rats, day 52, ORI group, mean
  Weight Gain: 71.12
[1]; DIO rats, day 55, ORI group, mean
  Weight Gain: 68.11
[1]; [5]
  Hepatocellular ballooning (0-2): 0.625
  Lobular Inflammation (0-3): 1.500
  NSAH (sum): 2.875
  Steatosis (0-3): 0.750
[1]; orlistat 80 mg/kg, 2 times/day
  blood biochemistry parameters vs HFD group: no statistically significant decreases in any of the measured blood components; also recorded: did not show any statistically significant decreases in any of the measured blood chemistry components
  body weight gain vs HFD group: statistically significant decreases in body weight gain on day 7 through to day 55
  liver pathology (NASH score) vs HFD group: statistically significant decreases in Steatosis, Lobular Inflammation, Hepatocellular ballooning and NASH score
  organ and fat pad weights vs HFD group: statistically significant decreases in all categories of fat measurement; also recorded: statistically significant decreases in Epididymal Fat, Retroperitoneal Fat, Perirenal Fat and Total Fat
  weight gain per day, food intake per day, food efficiency ratio (FER) vs HFD group: statistically lower values than the HFD group for average Body Weight Gain per day, average Food Intake per day and Food Efficiency Ratio
ghrelin; DIO mice plasma, 2-week treatment
  Active Ghrelin (pg/ml) 2-week: 1316.4 pg/mL
ghrelin; DIO mice plasma, 7-week treatment
  Active Ghrelin (pg/ml) 7-week: 1353.7 pg/mL
ghrelin; week 2 and week 7, orlistat 40 mg/kg 2 times/day, sibutramine 10 mg/kg 1 time/day
  active ghrelin level vs HFD group: no effect on active ghrelin levels at either week 2 or week 7
